This series has as its system MMP2 gene expression in FHL 124 cells. Description: Quantitative real-time PCR of MMP2 gene expression after siRNA transfection. It counts as cell-based, human. The following applies: 100 nM siRNA. The procedure:
FIG. 4. Validation of siRNA directed against specific inhibition of MMP2 for 24 hours using targeted siRNA techniques leads to a greater than 90% reduction in MMP2 gene expression. Furthermore, after 48 hours from initial MMP2 SiRNA transfection, MMP2 gene expression levels are still reduced by more than 80% in comparison with Scramble SiRNA controls. Each left hand bar of the bar pairs reports the result with Scramble siRNA (indicated as “Scramble SiRNA” in the key) and the right hand bar reports the result in the presence of MMP2 specific siRNA (indicated as “MMP2 SiRNA” in the key).
Total RNA was extracted from tissue and primary cultured cells (RNeasy micro kits; Qiagen, West Sussex, UK) in accordance with the manufacturer's instructions. In the initial step, RLT buffer (containing-mercaptoethanol) was added directly to phosphate buffered saline (PBS)-washed culture monolayers. Cultured cell lysates were removed with a cell scraper. Each sample was then transferred to an individual Eppendorf tube and passed through a needle and syringe. The remainder of the protocol was as described by the manufacturer and included a DNAse step. Quality control was maintained with an RNA analyzer (Bioanalyzer 2100; Agilent, West Lothian, UK) and an RNA lab chip (6000 Nano lab chip; Agilent) to ensure that 28S and 18S rRNA bands were clearly evident in total RNA samples. RNA was quantified with a spectrophotometer (ND-1000; NanoDrop, Wilmington, Del., USA). For the samples analyzed, the 260:280 ratio ranged from 1.8 to 2.2 (mean, 2.0). Where possible, total RNA was immediately used for cDNA generation or was briefly stored at −80° C. […]
Quantitative real-time PCR was used to analyze mRNA expression for all genes in FHL 124 cells (for a comprehensive description of MMPs and TIMPs primer/probe sets used, see Nuttall R. K. et al. (Mol Cancer Res (2003) 1, pages 333-345. Assuming 100% efficiency in the reverse transcription reaction, either 1 ng or 5 ng cDNA was used in real-time PCR reactions performed using a real-time PCR machine (ABI7700; Applied Biosystems). Reagent-based assays (Taq-Man Universal PCR Master Mix, No AmpErase UNG; Applied Biosystems) with all PCR reagents were used according to the manufacturer's instructions. The amount of amplification associated with priming from genomic DNA contamination was evaluated with control reverse transcription reactions containing all reagents without reverse transcriptase. […] The cycle number at which amplification entered the exponential phase (cycle threshold [CT]) was determined, and this number was used as an indicator for the amount of target RNA in each sample analyzed. […]

For “siMMP2: Custom made MMP2 siRNA: sense 5′-GGACACACUAAAGAAGAUGTT-3′, antisense 5′-CAUCUUCUUUAGUGUGUCCTT-3′, purchased from Ambion (chemistry not given here)”, the “reduction in MMP2 gene expression” value is “greater than 90%” (24 hours in transfection conditions, vs negative control siRNA); 90% (24 hours in transfection conditions, vs negative control siRNA, listed as siRNA against MMP2); “more than 80%” (48 hours from transfection, vs Scramble siRNA controls); > 70% (48 hours from transfection, vs Scramble siRNA controls, listed as siRNA against MMP2).

The values are drawn from US20110236395A1, “TREATMENT OF FIBROTIC EYE DISORDERS USING AN MMP2 INHIBITOR” (UNIVERSITY OF EAST ANGLIA, priority 2008, published 2011).
